The source made the active and inactive calls. The calls are words filed in the database; no cut-off is given here.

We go through 18 molecules from ChEMBL document CHEMBL3608300, “Synthesis and anticancer activity of novel curcumin-quinolone hybrids” (Bioorg Med Chem Lett, 2015).

For assay [1], the system named is A549. The assay can be described thus: Cytotoxicity against human A549 cells after 24 hrs by MTT assay. It counts as functional, cell-based. The settings on record: A549, 24 h. Background: Formazan colour is commonly taken as a measure of viable cells.
Assay [2] has as its system MCF7. In words: Cytotoxicity against human MCF7 cells after 24 hrs by MTT assay. It counts as functional, cell-based. The settings on record: MCF7, 24 h.
The test system of assay [3] is SK-OV-3. The assay can be described thus: Cytotoxicity against human SKOV3 cells after 24 hrs by MTT assay. The class given is functional, cell-based. The settings on record: SK-OV-3, 24 h.
Assay [4] is described as follows: Cytotoxicity against human H460 cells after 24 hrs by MTT assay. The class given is functional, cell-based. The conditions noted are these: NCI-H460, 24 h.
Another assay concerns HCT-15. The assay can be described thus: Cell cycle arrest in human HCT15 cells assessed as accumulation at G2/M phase at 50 uM after 24 hrs (reference value: 17%). The class given is functional.
A further assay concerns SJRH30. The assay can be described thus: Induction of ROS production in human Rh30 cells at 10 uM after 1 to 2 hrs relative to control. It counts as functional.
A further assay relates to HT-29. The assay can be described thus: Cell cycle arrest in human HT-29 cells assessed as accumulation at G2/M phase at 50 uM after 24 hrs (reference value: 12%). The class given is functional.
Assay [5] has as its system MCF7. The assay can be described thus: Cell cycle arrest in human MCF7 cells assessed as accumulation at G2/M phase at 10 uM after 24 hrs (reference value: 9%). The class given is functional.
Assay [6] concerns NCI-H460. The assay can be described thus: Cytotoxicity against human H460 cells up to 30 uM after 24 hrs by MTT assay. The class given is functional, cell-based.
In assay [7] the test system is NCI-H460. The assay can be described thus: Cytotoxicity against human H460 cells up to 10 uM after 24 hrs by MTT assay. It counts as functional, cell-based.
For assay [8], the system named is MCF7. The assay can be described thus: Cytotoxicity against human MCF7 cells up to 10 uM after 24 hrs by MTT assay. It counts as functional, cell-based.
The test system of assay [9] is A549. The assay can be described thus: Cytotoxicity against human A549 cells up to 10 uM after 24 hrs by MTT assay. The class given is functional, cell-based.
The subject of assay [10] is SK-OV-3. In words: Cytotoxicity against human SKOV3 cells up to 10 uM after 24 hrs by MTT assay. The class given is functional, cell-based.
Assay [11] concerns MCF7. In words: Cytotoxicity against human MCF7 cells up to 30 uM after 24 hrs by MTT assay. The class given is functional, cell-based.
For assay [12], the system named is SK-OV-3. In words: Cytotoxicity against human SKOV3 cells up to 30 uM after 24 hrs by MTT assay. The class given is functional, cell-based.
The subject of assay [13] is A549. The assay can be described thus: Cytotoxicity against human A549 cells up to 30 uM after 24 hrs by MTT assay. It counts as functional, cell-based.
Assay [14] deals with SK-OV-3. In words: Induction of ROS production in human SKOV3 cells at IC50 after 3 hrs using DCFDA dye by flow cytometry relative to control. The class given is functional. (Flow cytometry measures light scatter and fluorescence of single cells or particles in a stream.)
In assay [15] the test system is SK-OV-3. In words: Induction of apoptosis in human SKOV3 cells assessed as dead cells at IC50 after 24 hrs using Annexin V-PE/7AAD staining by flow cytometry (reference value: 0.7%). It counts as functional.
Assay [16] has as its system SK-OV-3. The assay can be described thus: Induction of apoptosis in human SKOV3 cells assessed as live cells at IC50 after 24 hrs using Annexin V-PE/7AAD staining by flow cytometry (reference value: 83.4%). It counts as functional.
The subject of assay [17] is SK-OV-3. In words: Cell cycle arrest in human SKOV3 cells assessed as accumulation at G2/M phase at IC50 after 24 hrs using hypo propidium iodide staining by flow cytometry (reference value: 15.43%). The class given is functional.
The test system of assay [18] is SK-OV-3. The assay can be described thus: Cell cycle arrest in human SKOV3 cells assessed as accumulation at S phase at IC50 after 24 hrs using hypo propidium iodide staining by flow cytometry (reference value: 11.4%). The class given is functional.
The test system of assay [19] is SK-OV-3. In words: Induction of apoptosis in human SKOV3 cells assessed as early apoptotic cells at IC50 after 24 hrs using Annexin V-PE/7AAD staining by flow cytometry (reference value: 6.8%). The class given is functional.
The test system of assay [20] is SK-OV-3. In words: Cell cycle arrest in human SKOV3 cells assessed as accumulation at G0/G1 phase at IC50 after 24 hrs using hypo propidium iodide staining by flow cytometry (reference value: 72.52%). It counts as functional.
The nature of assay [21]: Cytotoxicity against mouse NIH/3T3 cells assessed as cell viability at IC50 after 24 hrs by MTT assay. The class given is functional, NIH3T3.
Assay [22] has as its system SK-OV-3. The assay can be described thus: Induction of cell morphological changes in human SKOV3 cells assessed as cells with ruptured cell membranes at IC50 after 24 hrs by phase contrast microscope analysis. It counts as functional, cell-based.
For assay [23], the system named is SK-OV-3. In words: Induction of cell morphological changes in human SKOV3 cells assessed as cell shrinkage and development of bubble like blebs on membranes at IC50 after 24 hrs by phase contrast microscope analysis. It counts as functional, cell-based.
For assay [24], the system named is SK-OV-3. In words: Induction of apoptosis in human SKOV3 cells assessed as apoptotic cells at IC50 after 24 hrs using Annexin V-PE/7AAD staining by flow cytometry (reference value: 9.0%). The class given is functional.

The IC50 is the concentration needed to halve the response being measured. Higher therefore signals weaker potency in that assay. Regarding `C#CCn1c(=O)c(C=O)cc2cc(OC)ccc21`, the IC50 (in the assay with A549 [1]; in the assay with MCF7 [2]; in the assay on SK-OV-3 [3]; in assay [4]) was greater than 100 µM each time.
Consider `COc1cc(/C=C/C(=O)CC(=O)/C=C/c2ccc(O)c(OC)c2)ccc1O` [CURCUMIN], for which the IC50 in the assay with A549 [1] is 60.2 µM; in the assay with MCF7 [2] it was 32.2 µM; in the assay on SK-OV-3 [3], 43.6 µM; in assay [4], 82.5 µM. The Activity came out at 32% in the assay with HCT-15, 33% in the assay on HT-29 and 28% in the assay with MCF7 [5]. Also, the “fold change (FC)” value with SJRH30 is listed as 1.5.
For `C=CCn1c(=O)c(C=O)cc2ccccc21`, the IC50 (in the assay on A549 [1]; with MCF7 [2]; in the assay with SK-OV-3 [3]; in assay [4]) was greater than 100 µM throughout.
As to `C=CCn1c(=O)c(/C=C/C(=O)/C=C(O)/C=C/c2ccc(O)c(OC)c2)cc2ccccc21`, the IC50 with A549 [1] was determined as 31.3 µM; with MCF7 [2], 23.5 µM; in the assay on SK-OV-3 [3], 26 µM. Further, the outcome in the assay on NCI-H460 [6] was inactive.
On to `C#CCn1c(=O)c(C=O)cc2ccccc21`, for which the IC50 (in the assay on A549 [1]; with MCF7 [2]; in the assay on SK-OV-3 [3]; in [4]) was greater than 100 µM throughout.
`C#CCn1c(=O)c(/C=C/C(=O)/C=C(O)/C=C/c2ccc(O)c(OC)c2)cc2ccccc21`: the IC50 in the assay with A549 [1] was 21.3 µM; in the assay on MCF7 [2], 15 µM; in the assay with SK-OV-3 [3], 19 µM; in assay [4], 25.4 µM.
The matching figures for `C#CCn1c(=O)c(C=O)cc2cc(Cl)ccc21`: greater than 100 µM, greater than 100 µM, greater than 100 µM and greater than 100 µM.
On the same counts, the results for `C#CCn1c(=O)c(/C=C/C(=O)/C=C(O)/C=C/c2ccc(O)c(OC)c2)cc2cc(OC)ccc21` are 20.6 µM, greater than 100 µM, 14 µM and 38.1 µM.
As for `COc1cc(/C=C/C(O)=C/C(=O)/C=C/c2cc3ccccc3[nH]c2=O)ccc1O`, the outcome in the assay on NCI-H460 [7], in the assay with MCF7 [8], in the assay on A549 [9] and in the assay on SK-OV-3 [10] was inactive.
As to `O=Cc1cc2ccccc2[nH]c1=O`, the IC50 (in the assay on A549 [1]; in the assay with MCF7 [2]; in the assay on SK-OV-3 [3]; in assay [4]) was greater than 100 µM in each case.
Take `O=Cc1cc2ccccc2n(Cc2ccccc2)c1=O`: the IC50 in the assay on A549 [1] is greater than 100 µM; in the assay with MCF7 [2], 31.9 µM; in the assay on SK-OV-3 [3], greater than 100 µM; in [4], greater than 100 µM.
In the case of `C#CCn1c(=O)c(/C=C/C(=O)/C=C(O)/C=C/c2ccc(O)c(OC)c2)cc2cc(Cl)ccc21`, the result in the assay with MCF7 [11], in the assay on NCI-H460 [6], with SK-OV-3 [12] and in the assay on A549 [13] was inactive.
Regarding `O=C(/C=C(O)/C=C/c1cc2ccccc2[nH]c1=O)/C=C/c1cc2ccccc2[nH]c1=O`, the IC50 in the assay on A549 [1] amounted to 69.1 µM; in the assay with MCF7 [2] it was 31.5 µM; in the assay with SK-OV-3 [3] it was 34 µM; in assay [4] it was 63.3 µM.
On the same counts, the results for `C#CCn1c(=O)c(C=O)cc2cc(F)ccc21` are greater than 100 µM, greater than 100 µM, greater than 100 µM and greater than 100 µM.
On the same counts, the results for `C#CCn1c(=O)c(C=O)cc2cc(C)ccc21` are greater than 100 µM, greater than 100 µM, greater than 100 µM and greater than 100 µM.
Take `C#CCn1c(=O)c(/C=C/C(=O)/C=C(O)/C=C/c2ccc(O)c(OC)c2)cc2cc(C)ccc21`: the Activity in the assay with SK-OV-3 [14] is recorded as 61.5%; with SK-OV-3 [15] it was 7.3%; in the assay with SK-OV-3 [16] it was 27.7%; in the assay with SK-OV-3 [17] it was 25%; in the assay on SK-OV-3 [18], 19.49%; with SK-OV-3 [19], 2.5%. In addition, the Activity with SK-OV-3 [20] is 54.43%; in [21], 74.5%; with SK-OV-3 [24], 62.5%. In addition, the IC50 is 23.9 µM in the assay on A549 [1], 36.2 µM in the assay with MCF7 [2], 12.8 µM in the assay with SK-OV-3 [3] and 21.8 µM in assay [4]. For the same molecule, the outcome in the assay on SK-OV-3 [22] and in the assay on SK-OV-3 [23] was Active.
On to `COc1cc(/C=C/C(O)=C/C(=O)/C=C/c2cc3ccccc3n(Cc3ccccc3)c2=O)ccc1O`, for which the result with NCI-H460 [7], in the assay on MCF7 [8], in the assay on A549 [9] and in the assay with SK-OV-3 [10] was inactive.
Regarding `C#CCn1c(=O)c(/C=C/C(=O)/C=C(O)/C=C/c2ccc(O)c(OC)c2)cc2cc(F)ccc21`, the IC50 was 40.5 µM in the assay with A549 [1], 25 µM in the assay on MCF7 [2], greater than 100 µM in the assay with SK-OV-3 [3] and 44.3 µM in assay [4].
